According to the CheMixHub viscosity set:

Assay: xn = mol fraction of the nth substance listed

CCCCCCCCCCCCCCCCCCCCCC + CCCCCCCCCC
viscosity [mPa·s], 101.3 kPa
Conditions	x2 = 0.4	x2 = 0.5	x2 = 0.6	x2 = 0.799
303.2 K	–	–	–	1.47
313.2 K	2.93	2.53	2.05	1.24

OC1CCCC1 + OCCO
viscosity [mPa·s], 100 kPa
Conditions	293.15 K	298.15 K	303.15 K	308.15 K	313.15 K	318.15 K
x1 = 0.0096	20.05	16.39	13.54	11.2	9.449	7.776
x1 = 0.0395	19.37	15.85	13.05	10.76	9.1	7.468
x1 = 0.0579	19.05	15.56	12.79	10.56	8.919	7.326
x1 = 0.0879	18.56	15.14	12.41	10.23	8.646	7.096
x1 = 0.1	18.37	14.97	12.3	10.1	8.562	7.014
x1 = 0.1962	17.2	13.96	11.39	9.382	7.926	6.505
x1 = 0.305	16.2	13.09	10.65	8.716	7.366	6.078
x1 = 0.3969	15.4	12.54	10.2	8.282	7.016	5.819
x1 = 0.4993	14.8	12.02	9.751	7.927	6.692	5.617
x1 = 0.5877	14.3	11.69	9.42	7.677	6.437	5.439
x1 = 0.6993	13.9	11.33	8.99	7.319	6.14	5.219
x1 = 0.797	13.56	11.01	8.69	7.01	5.861	5.05
x1 = 0.8977	13.15	10.62	8.345	6.737	5.625	4.89
